Experimental data as given in the supplement of paper PMC10307832.

Tests used:
Experiment in all cases: relative viability (nuclei count vs DMSO), 5 days (fraction); higher = more cells survive
UMC-11 = test system: UMC-11
Outline: (§1)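 Lung cancer cell lines in 1536-well plates got either a single drug or a fixed anchor-drug dose together with five library-drug doses (not always all listed) in √10 steps, by pin tool, on the day after seeding. Nuclei were counted after 5 days, and relative viability is the treated-to-vehicle ratio of nuclei counts. Values are medians of duplicate plates.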

NCI-H2023 = test system: NCI-H2023
Outline: as §1

EMC-BAC-2 = test system: EMC-BAC-2
Outline: as §1

NCI-H650 = test system: NCI-H650
Outline: as §1

NCI-H2405 = test system: NCI-H2405
Outline: as §1

NCI-H1793 = test system: NCI-H1793
Outline: as §1

NCI-H322M = test system: NCI-H322M
Outline: as §1

NCI-H1395 = test system: NCI-H1395
Outline: as §1

HCC-827 = test system: HCC-827
Outline: as §1

LCLC-103H = test system: LCLC-103H
Outline: as §1

NCI-H1944 = test system: NCI-H1944
Outline: as §1

NC(=O)Nc1cc(-c2cccc(F)c2)sc1C(=O)N[C@H]1CCCNC1 [AZD7762] + C[C@]1(O)C[C@@H](c2nc(-c3ccc4ccc(-c5ccccc5)nc4c3)c3c(N)nccn32)C1 [Linsitinib] (partner 1 µM)
relative viability (UMC-11; first compound 0.01 µM): 1.03
relative viability (UMC-11; first compound 0.03162 µM): 0.956
relative viability (UMC-11; first compound 0.1 µM): 0.976
relative viability (UMC-11; first compound 0.3162 µM): 0.689
relative viability (UMC-11; first compound 1 µM): 0.551
relative viability (NCI-H2023; first compound 0.01 µM): 0.619
relative viability (NCI-H2023; first compound 0.03162 µM): 0.485
relative viability (NCI-H2023; first compound 0.1 µM): 0.387
relative viability (NCI-H2023; first compound 0.3162 µM): 0.21
relative viability (NCI-H2023; first compound 1 µM): 0.0864
relative viability (EMC-BAC-2; first compound 0.01 µM): 0.795
relative viability (EMC-BAC-2; first compound 0.03162 µM): 0.806
relative viability (EMC-BAC-2; first compound 0.1 µM): 0.799
relative viability (EMC-BAC-2; first compound 0.3162 µM): 0.799
relative viability (EMC-BAC-2; first compound 1 µM): 0.809
relative viability (NCI-H650; first compound 0.01 µM): 1.01
relative viability (NCI-H650; first compound 0.03162 µM): 0.984
relative viability (NCI-H650; first compound 0.1 µM): 0.842
relative viability (NCI-H650; first compound 0.3162 µM): 0.843
relative viability (NCI-H650; first compound 1 µM): 0.811
relative viability (NCI-H2405; first compound 0.01 µM): 1
relative viability (NCI-H2405; first compound 0.03162 µM): 0.929
relative viability (NCI-H2405; first compound 0.1 µM): 0.86
relative viability (NCI-H2405; first compound 0.3162 µM): 0.655
relative viability (NCI-H2405; first compound 1 µM): 0.402
relative viability (NCI-H1793; first compound 0.01 µM): 1.05
relative viability (NCI-H1793; first compound 0.03162 µM): 0.82
relative viability (NCI-H1793; first compound 0.1 µM): 0.994
relative viability (NCI-H1793; first compound 0.3162 µM): 0.801
relative viability (NCI-H1793; first compound 1 µM): 0.358
relative viability (NCI-H322M; first compound 0.01 µM): 1.02
relative viability (NCI-H322M; first compound 0.03162 µM): 1.03
relative viability (NCI-H322M; first compound 0.1 µM): 0.92
relative viability (NCI-H322M; first compound 0.3162 µM): 0.987
relative viability (NCI-H322M; first compound 1 µM): 0.84
relative viability (NCI-H1395; first compound 0.01 µM): 1.16
relative viability (NCI-H1395; first compound 0.03162 µM): 1.09
relative viability (NCI-H1395; first compound 0.1 µM): 0.966
relative viability (NCI-H1395; first compound 0.3162 µM): 0.579
relative viability (NCI-H1395; first compound 1 µM): 0.481
relative viability (HCC-827; first compound 0.01 µM): 1.06
relative viability (HCC-827; first compound 0.03162 µM): 0.994
relative viability (HCC-827; first compound 0.1 µM): 0.922
relative viability (HCC-827; first compound 0.3162 µM): 0.961
relative viability (HCC-827; first compound 1 µM): 0.863
relative viability (LCLC-103H; first compound 0.01 µM): 1.1
relative viability (LCLC-103H; first compound 0.03162 µM): 1.09
relative viability (LCLC-103H; first compound 0.1 µM): 0.997
relative viability (LCLC-103H; first compound 0.3162 µM): 1.11
relative viability (LCLC-103H; first compound 1 µM): 0.738
relative viability (NCI-H1944; first compound 0.01 µM): 1.19
relative viability (NCI-H1944; first compound 0.03162 µM): 1.26
relative viability (NCI-H1944; first compound 0.1 µM): 1.35
relative viability (NCI-H1944; first compound 0.3162 µM): 1.25
relative viability (NCI-H1944; first compound 1 µM): 1.14
